This passage reports IC50 results from patent publication US20230117470A1, “SUBSTITUTED PYRAZOLE COMPOUNDS AS TOLL RECEPTOR INHIBITORS” (BRISTOL-MYERS SQUIBB COMPANY, priority 2019, published 2023).

Common to all, as to format: cell-based
The target in one assay is T1, human TLR7 (Homo sapiens, UniProt Q9NYK1).
T1 construct: host or cells: HEK-Blue cells
T1 sequence (Q9NYK1 27-1049): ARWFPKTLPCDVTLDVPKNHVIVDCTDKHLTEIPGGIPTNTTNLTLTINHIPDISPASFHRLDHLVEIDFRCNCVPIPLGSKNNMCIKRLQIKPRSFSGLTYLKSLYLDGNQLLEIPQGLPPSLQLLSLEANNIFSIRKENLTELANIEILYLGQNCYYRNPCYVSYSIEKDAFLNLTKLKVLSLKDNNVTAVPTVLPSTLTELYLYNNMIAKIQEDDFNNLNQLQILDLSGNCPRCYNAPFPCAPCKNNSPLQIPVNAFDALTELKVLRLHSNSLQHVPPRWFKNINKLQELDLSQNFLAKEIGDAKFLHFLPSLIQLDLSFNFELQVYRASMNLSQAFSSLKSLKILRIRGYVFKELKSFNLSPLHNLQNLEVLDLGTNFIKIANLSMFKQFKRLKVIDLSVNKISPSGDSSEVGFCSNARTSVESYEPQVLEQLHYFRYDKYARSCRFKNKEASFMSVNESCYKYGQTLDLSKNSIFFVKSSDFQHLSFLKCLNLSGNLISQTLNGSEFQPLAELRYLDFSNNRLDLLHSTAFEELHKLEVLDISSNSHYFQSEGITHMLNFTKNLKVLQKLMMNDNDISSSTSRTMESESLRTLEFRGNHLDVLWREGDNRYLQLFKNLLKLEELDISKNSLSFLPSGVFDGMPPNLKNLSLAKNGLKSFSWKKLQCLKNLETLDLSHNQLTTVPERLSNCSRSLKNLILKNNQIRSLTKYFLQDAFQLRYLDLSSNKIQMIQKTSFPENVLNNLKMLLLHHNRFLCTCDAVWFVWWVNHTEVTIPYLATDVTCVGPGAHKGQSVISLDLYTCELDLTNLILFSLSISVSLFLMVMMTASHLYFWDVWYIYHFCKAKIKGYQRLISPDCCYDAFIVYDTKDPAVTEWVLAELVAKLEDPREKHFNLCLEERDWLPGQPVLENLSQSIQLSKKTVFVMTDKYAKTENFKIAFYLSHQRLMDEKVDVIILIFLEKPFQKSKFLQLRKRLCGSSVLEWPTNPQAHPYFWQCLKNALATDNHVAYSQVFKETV
The assay is described as follows: TLR7 inhibition reporter assay (HEK-Blue cells, SEAP reporter, gardiquimod stimulation). The settings on record: HEK-Blue cells overexpressing human TLR7, SEAP reporter, gardiquimod 7.5 μM. The procedure:
(§1) TLR7/8/9 Inhibition Reporter Assays
(§2) HEK-Blue™-cells (Invivogen) overexpressing human TLR7, TLR8 or TLR9 receptors were used for screening inhibitors of these receptors using an inducible SEAP (secreted embryonic alkaline phosphatase) reporter gene under the control of the IFN-β minimal promoter fused to five NF-κB and AP-1-binding sites. Briefly, cells are seeded into Greiner 384 well plates (15000 cells per well for TLR7, 20,000 for TLR8 and 25,000 for TLR9) and then treated with test compounds in DMSO to yield a final dose response concentration range of 0.05 nM-50 μM. After a 30 minute compound pre-treatment at room temperature, the cells are then stimulated with a TLR7 ligand (gardiquimod at a final concentration of 7.5 μM), TLR8 ligand (R848 at a final concentration of 15.9 μM) or TLR9 ligand (ODN2006 at a final concentration of 5 nM) to activate NF-κB and AP-1 which induce the production of SLA After a 22 hour incubation at 37° C., […], SEAP levels are determined with the addition of HEK-Blue™ Detection reagent (Invivogen), a cell culture medium that allows for detection of SLAP, according to manufacturer's specifications. The percent inhibition is determined as the % reduction in the HEK-Blue signal present in wells treated with agonist plus DMSO alone compared to wells treated with a known inhibitor.
In general terms: Reporter assays use an easily measured gene product as a stand-in for the process of interest.

The target in a further assay is T2, human TLR8 (Homo sapiens, UniProt Q9NR97).
T2 construct: host or cells: HEK-Blue cells
T2 sequence (Q9NR97 27-1041): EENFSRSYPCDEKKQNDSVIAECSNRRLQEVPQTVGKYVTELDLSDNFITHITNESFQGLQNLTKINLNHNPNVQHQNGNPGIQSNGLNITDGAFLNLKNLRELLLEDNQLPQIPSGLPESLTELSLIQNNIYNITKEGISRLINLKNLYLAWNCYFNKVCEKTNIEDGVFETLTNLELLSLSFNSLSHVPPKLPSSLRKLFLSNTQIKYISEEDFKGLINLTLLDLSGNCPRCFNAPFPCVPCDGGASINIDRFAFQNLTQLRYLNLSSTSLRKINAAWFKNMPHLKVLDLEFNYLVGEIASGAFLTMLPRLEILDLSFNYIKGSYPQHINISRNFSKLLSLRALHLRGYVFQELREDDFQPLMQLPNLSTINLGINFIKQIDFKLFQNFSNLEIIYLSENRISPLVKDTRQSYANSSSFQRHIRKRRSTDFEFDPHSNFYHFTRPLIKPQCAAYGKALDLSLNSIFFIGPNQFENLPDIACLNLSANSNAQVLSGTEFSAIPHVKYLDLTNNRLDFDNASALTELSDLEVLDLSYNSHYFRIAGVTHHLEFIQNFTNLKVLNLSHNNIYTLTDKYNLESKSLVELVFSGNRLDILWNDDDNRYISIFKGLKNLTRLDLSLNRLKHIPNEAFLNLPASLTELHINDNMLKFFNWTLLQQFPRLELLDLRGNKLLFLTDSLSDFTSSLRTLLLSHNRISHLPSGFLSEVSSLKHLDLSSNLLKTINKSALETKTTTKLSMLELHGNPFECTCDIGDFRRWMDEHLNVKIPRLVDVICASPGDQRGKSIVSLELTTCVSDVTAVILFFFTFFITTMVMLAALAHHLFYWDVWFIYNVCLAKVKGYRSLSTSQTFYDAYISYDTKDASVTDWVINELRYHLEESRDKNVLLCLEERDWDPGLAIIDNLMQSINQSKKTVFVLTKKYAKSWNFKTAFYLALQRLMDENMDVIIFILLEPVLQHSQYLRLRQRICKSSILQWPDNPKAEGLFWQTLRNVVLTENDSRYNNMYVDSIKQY
The assay is described as follows: TLR8 inhibition reporter assay (HEK-Blue cells, SEAP reporter, R848 stimulation). As to conditions: HEK-Blue cells overexpressing human TLR8, SEAP reporter, R848 15.9 μM. The procedure: as §1, §2

The next assay concerns the target T3, human TLR9 (Homo sapiens, UniProt Q9NR96).
T3 construct: host or cells: HEK-Blue cells
T3 sequence (Q9NR96 26-1032): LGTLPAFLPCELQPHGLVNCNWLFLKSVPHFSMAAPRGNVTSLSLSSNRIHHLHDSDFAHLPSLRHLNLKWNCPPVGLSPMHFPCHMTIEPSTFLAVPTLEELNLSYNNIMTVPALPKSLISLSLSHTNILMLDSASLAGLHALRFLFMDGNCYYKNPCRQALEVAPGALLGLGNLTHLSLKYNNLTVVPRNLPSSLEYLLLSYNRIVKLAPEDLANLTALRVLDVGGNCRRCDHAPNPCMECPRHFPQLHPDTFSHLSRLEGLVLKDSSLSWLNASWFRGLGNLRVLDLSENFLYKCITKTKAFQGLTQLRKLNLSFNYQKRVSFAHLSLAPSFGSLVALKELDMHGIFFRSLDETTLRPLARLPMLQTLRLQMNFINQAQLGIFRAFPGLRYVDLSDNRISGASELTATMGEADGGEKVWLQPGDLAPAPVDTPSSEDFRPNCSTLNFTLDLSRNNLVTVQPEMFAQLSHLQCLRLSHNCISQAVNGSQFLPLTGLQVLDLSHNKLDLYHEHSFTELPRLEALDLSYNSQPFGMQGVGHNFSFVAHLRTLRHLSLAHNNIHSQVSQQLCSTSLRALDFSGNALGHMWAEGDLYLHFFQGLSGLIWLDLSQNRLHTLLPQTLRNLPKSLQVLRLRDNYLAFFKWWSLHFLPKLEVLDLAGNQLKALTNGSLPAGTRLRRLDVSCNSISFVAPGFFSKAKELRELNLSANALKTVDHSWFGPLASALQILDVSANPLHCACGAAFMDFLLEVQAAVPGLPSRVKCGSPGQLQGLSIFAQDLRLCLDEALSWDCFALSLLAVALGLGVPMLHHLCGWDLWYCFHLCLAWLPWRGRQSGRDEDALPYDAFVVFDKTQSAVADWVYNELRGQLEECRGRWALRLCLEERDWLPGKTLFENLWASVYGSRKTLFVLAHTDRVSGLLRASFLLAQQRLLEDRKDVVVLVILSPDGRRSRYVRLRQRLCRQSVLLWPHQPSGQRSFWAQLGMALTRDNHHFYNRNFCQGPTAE
The experiment in a line: TLR9 inhibition reporter assay (HEK-Blue cells, SEAP reporter, ODN2006 stimulation). As to conditions: HEK-Blue cells overexpressing human TLR9, SEAP reporter, ODN2006 5 nM. The protocol:
as §1, §2

The IC50 is the concentration at which inhibition is half-maximal.

A value given as a limit tells only on which side of the number the result lay.

In the case of `Cc1cc(-c2[nH]nc(C(=O)N[C@H]3CC[C@H](NC4CCOC(C)(C)C4)CC3)c2C(C)C)cn2ncnc12` (stereo partly drawn) [Example 115], the IC50 on human TLR7 came to 11.7 nM; on human TLR8, 17 nM; against human TLR9, 1210 nM.

As to `Cc1cc(-c2[nH]nc(-c3ccc(C4CCN(CC(C)(C)C)CC4)cn3)c2C(C)C)cn2ncnc12` [Example 373], the values for the half-inhibitory concentration (IC50) on human TLR7, against human TLR8 and against human TLR9 were 81.9 nM, 34.5 nM and 42100 nM, respectively.

As to `Cc1cc(-c2[nH]nc(C3CCC(N(C)C(=O)CN(C)C)CC3)c2C(C)C)cn2ncnc12` (stereo not drawn) [Example 296, 2-(dimethylamino)-N-(4-(4-isopropyl-5-(8-methyl-[1,2,4]triazolo[1,5-a]pyridin-6-yl)-1H-pyrazol-3-yl)cyclohexyl)-N-methylacetamide], the half-maximal inhibitory concentration (IC50) was found to be 3.45 nM against human TLR7, 0.73 nM at human TLR8 and 33800 nM at human TLR9.

For `Cc1cc(-c2[nH]nc(-c3ncc(C4CCN(C(C)C(C)C)CC4)cn3)c2C(C)C)cn2ncnc12` (stereo not drawn) [Example 372], the IC50 was 10.7 nM against human TLR7, 2.49 nM on human TLR8 and 8880 nM on human TLR9.

Turning to `Cc1cc(-c2[nH]nc(C(=O)N[C@H]3CC[C@H](N(CC4CC4)CC4CC4)CC3)c2C(C)C)cn2ncnc12` [Example 103], the IC50 against human TLR7 is 48 nM; against human TLR8, 3.46 nM; against human TLR9, 3600 nM.

On to `Cc1cc(-c2[nH]nc(C(=O)N3CCN(CCC#N)CC3)c2C(C)C)cn2ncnc12` [Example 19], for which the IC50 against human TLR7 was 1.4 nM; on human TLR8, 12 nM; at human TLR9, 5940 nM.

`CCCN1CCC(c2ccc(-c3n[nH]c(-c4cc(OC)c5ncnn5c4)c3C(C)C)nc2)CC1` [Example 349]: the figures for the concentration for half-maximal inhibition (IC50) on human TLR7, against human TLR8 and against human TLR9 were 91 nM, 1.85 nM and above 50000 nM, respectively.

Regarding `COc1cc(-c2[nH]nc(-c3cnc(C4CCN(CC5CCOCC5)CC4)cn3)c2C(C)C)cn2ncnc12` [Example 376], the values for the IC50 against human TLR7, on human TLR8 and on human TLR9 were 4.54 nM, 2.8 nM and 6300 nM, respectively.

Regarding `Cc1cc(-c2[nH]nc(-c3ccc(C4CCN(C(C)C)CC4)nc3)c2C(C)C)cn2ncnc12` [Example 361], the IC50 on human TLR7 was 719 nM; against human TLR8 it was above 3130 nM; on human TLR9, 45600 nM.

As to `CCN(C)C1CCC(c2n[nH]c(-c3cc(C)c4ncnn4c3)c2C(C)C)CC1` (single isomer, unassigned) [Example 283], the half-inhibitory concentration (IC50) at human TLR7 is 18.8 nM; at human TLR8 it was 1.7 nM; against human TLR9, above 50000 nM.

On to `Cc1cc(-c2[nH]nc(C(=O)NCC3CN(C(C)C)CCO3)c2C(C)C)cn2ncnc12` (stereo not drawn) [Example 135], for which the values for the IC50 at human TLR7, against human TLR8 and on human TLR9 were 6.8 nM, 38.9 nM and 22400 nM, respectively.

With `Cc1cc(-c2[nH]nc(-c3nc4c(s3)CNCC4)c2C(C)C)cn2ncnc12` [Example 218], the IC50 against human TLR7 came out at 1.44 nM; against human TLR8, 18.6 nM; against human TLR9, 35900 nM.

With `Cc1cc(-c2[nH]nc(C(=O)NC3CCC(O)CC3)c2C(C)C)cn2ncnc12` (stereo not drawn) [Example 32], the figures for the half-maximal inhibitory concentration (IC50) against human TLR7, against human TLR8 and on human TLR9 were 3.41 nM, 15.9 nM and above 50000 nM, respectively.

On to `Cc1cc(-c2[nH]nc(C(=O)N[C@H]3CC[C@@H](N)CC3)c2C(C)C)cn2ncnc12` [Example 63], for which the 50% inhibitory concentration (IC50) is 24.8 nM on human TLR7, 14.6 nM at human TLR8 and above 50000 nM against human TLR9.

`Cc1cc(-c2[nH]nc(-c3ccc4c(c3)CCN(C)C4)c2C(C)C)cn2ncnc12` [Example 235, 6-(4-isopropyl-5-(8-methyl-[1,2,4]triazolo[1,5-a]pyridin-6-yl)-1H-pyrazol-3-yl)-2-methyl-1,2,3,4-tetrahydroisoquinoline]: the 50% inhibitory concentration (IC50) against human TLR7 amounted to 1.05 nM; at human TLR8, 1.01 nM; against human TLR9, 16600 nM.

For `COc1cc(-c2[nH]nc(-c3cnc(C4CCN(CC5CC5)CC4)cn3)c2C(C)C)cn2ncnc12` [Example 378], the concentration for half-maximal inhibition (IC50) is 29.4 nM at human TLR7, 12.2 nM at human TLR8 and above 50000 nM on human TLR9.
